Where two headings read alike, the source gives them in different places.
Columns and labels:
Assay in all cases: KINOMEscan competitive binding
[1] = molecular target: T1, AAK1 (Homo sapiens, UniProt Q2M2I8)
T1 construct: purchased DiscoverX (KINOMEscan)
Description: (§1) The kinases were expressed as fusions to T7 bacteriophage. This is a sensitive, competitive binding assay where test compounds were used to displace immobilized ATP-site binding probe ligands from kinases of interest. The amount of kinase that remained bound to the immobilized probe ligands on the solid support was quantified. Percentage inhibition data were was plotted on kinome trees using the web-based tool KinMap (http://www.kinhub.org/kinmap) ([60]).

[2] = molecular target: T2, AXL (Homo sapiens, UniProt P30530)
T2 construct: purchased DiscoverX (KINOMEscan)
T2 sequence (P30530 26-894): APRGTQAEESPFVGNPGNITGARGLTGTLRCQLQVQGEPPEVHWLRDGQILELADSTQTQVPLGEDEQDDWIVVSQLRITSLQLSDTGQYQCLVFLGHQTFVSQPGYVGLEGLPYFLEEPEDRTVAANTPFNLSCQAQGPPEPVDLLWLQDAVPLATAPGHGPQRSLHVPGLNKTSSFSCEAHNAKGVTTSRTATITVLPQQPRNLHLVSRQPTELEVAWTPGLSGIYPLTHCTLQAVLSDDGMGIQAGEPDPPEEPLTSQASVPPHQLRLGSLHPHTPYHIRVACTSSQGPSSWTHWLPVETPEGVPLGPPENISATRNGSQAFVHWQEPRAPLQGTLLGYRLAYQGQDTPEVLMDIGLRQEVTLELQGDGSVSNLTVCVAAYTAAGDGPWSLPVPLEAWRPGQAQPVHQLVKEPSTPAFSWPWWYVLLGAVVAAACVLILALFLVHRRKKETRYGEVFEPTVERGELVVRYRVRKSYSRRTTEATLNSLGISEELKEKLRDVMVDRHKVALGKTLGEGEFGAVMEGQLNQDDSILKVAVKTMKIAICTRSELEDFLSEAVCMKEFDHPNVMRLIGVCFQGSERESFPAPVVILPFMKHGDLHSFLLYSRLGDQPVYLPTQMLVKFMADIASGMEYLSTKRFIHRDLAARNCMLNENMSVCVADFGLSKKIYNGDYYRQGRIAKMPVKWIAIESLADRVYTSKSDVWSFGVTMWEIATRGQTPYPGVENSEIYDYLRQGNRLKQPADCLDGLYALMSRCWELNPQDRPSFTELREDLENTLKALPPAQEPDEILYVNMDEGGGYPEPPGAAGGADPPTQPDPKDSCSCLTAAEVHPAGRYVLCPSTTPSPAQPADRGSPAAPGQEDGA
Description: as §1

[3] = molecular target: T3, Aurora kinase A (Homo sapiens, UniProt O14965)
T3 construct: purchased DiscoverX (KINOMEscan)
T3 sequence (O14965 1-403): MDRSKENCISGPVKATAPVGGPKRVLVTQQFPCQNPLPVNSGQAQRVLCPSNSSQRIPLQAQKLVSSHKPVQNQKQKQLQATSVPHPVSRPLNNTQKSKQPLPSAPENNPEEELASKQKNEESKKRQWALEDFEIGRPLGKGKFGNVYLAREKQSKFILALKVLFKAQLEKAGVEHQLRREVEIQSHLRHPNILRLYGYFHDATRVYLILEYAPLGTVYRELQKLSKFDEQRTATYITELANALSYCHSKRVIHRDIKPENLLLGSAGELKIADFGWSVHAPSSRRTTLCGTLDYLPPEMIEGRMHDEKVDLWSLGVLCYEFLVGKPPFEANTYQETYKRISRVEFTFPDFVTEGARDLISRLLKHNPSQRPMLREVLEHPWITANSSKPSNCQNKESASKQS
Description: as §1

[4] = molecular target: T4, BIKE (Homo sapiens, UniProt Q9NSY1)
T4 construct: purchased DiscoverX (KINOMEscan)
Description: as §1

[5] = molecular target: T5, CDK2 (Homo sapiens, UniProt P24941)
T5 construct: purchased DiscoverX (KINOMEscan)
Description: as §1

[6] = molecular target: T6, EGFR (Homo sapiens, UniProt P00533)
T6 construct: purchased DiscoverX (KINOMEscan)
Description: as §1

[7] = molecular target: T7, KDR (VEGFR2) (Homo sapiens, UniProt P35968); settings: for inhibition at 10 µM: KINOMEscan, n=1, read-out: Percent inhibition, VEGFR2
T7 construct: purchased DiscoverX (KINOMEscan)
Description: as §1

[8] = molecular target: T8, LYN (Homo sapiens, UniProt P07948)
T8 construct: purchased DiscoverX (KINOMEscan)
Description: as §1

[9] = molecular target: T9, TTK (Homo sapiens, UniProt P33981)
T9 construct: purchased DiscoverX (KINOMEscan)
T9 sequence (P33981 1-857): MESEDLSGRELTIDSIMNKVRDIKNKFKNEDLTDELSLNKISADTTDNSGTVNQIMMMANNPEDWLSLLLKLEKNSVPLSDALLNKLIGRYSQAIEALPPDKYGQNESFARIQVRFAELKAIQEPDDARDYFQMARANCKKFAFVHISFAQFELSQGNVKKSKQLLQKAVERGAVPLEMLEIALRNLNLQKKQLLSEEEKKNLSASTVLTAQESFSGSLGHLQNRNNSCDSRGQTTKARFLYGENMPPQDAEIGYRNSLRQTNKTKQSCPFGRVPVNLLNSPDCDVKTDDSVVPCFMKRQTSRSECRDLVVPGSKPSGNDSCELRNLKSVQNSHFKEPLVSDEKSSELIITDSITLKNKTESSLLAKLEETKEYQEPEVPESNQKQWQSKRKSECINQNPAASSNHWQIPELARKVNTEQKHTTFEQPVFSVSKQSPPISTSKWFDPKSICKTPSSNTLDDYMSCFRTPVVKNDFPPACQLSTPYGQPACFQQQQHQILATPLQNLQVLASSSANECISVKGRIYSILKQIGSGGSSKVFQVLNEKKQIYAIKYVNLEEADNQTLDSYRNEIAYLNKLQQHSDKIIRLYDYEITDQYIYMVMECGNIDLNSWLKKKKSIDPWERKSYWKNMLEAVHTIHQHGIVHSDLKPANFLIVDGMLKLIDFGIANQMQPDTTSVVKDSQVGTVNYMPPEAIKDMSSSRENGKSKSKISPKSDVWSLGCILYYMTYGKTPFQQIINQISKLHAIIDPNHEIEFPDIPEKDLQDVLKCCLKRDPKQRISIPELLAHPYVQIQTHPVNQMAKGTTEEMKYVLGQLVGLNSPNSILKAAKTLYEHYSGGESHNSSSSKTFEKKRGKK
Description: as §1

[10] = 10 µM, n=1, kinase AAK1, read-out: Percent inhibition AAK1
[11] = 10 µM, n=1, kinase AXL, read-out: Percent inhibition AXL
[12] = 10 µM, n=1, kinase AURKA, read-out: Percent inhibition AURKA
[13] = 10 µM, n=1, kinase BIKE, read-out: Percent inhibition BIKE
[14] = 10 µM, n=1, kinase CDK2, read-out: Percent inhibition CDK2
[15] = 10 µM, n=1, kinase EGFR, read-out: Percent inhibition EGFR
[16] = 10 µM, n=1, kinase LYN, read-out: Percent inhibition LYN
[17] = KINOMEscan, 10 µM, n=1, read-out: Percent inhibition, TTK
[18] = 10 μM, n = 1, read-out: percent inhibition Aurora kinase A
[19] = 10 μM, n = 1, read-out: percent inhibition CDK2

T6 sequence (P00533 25-1210): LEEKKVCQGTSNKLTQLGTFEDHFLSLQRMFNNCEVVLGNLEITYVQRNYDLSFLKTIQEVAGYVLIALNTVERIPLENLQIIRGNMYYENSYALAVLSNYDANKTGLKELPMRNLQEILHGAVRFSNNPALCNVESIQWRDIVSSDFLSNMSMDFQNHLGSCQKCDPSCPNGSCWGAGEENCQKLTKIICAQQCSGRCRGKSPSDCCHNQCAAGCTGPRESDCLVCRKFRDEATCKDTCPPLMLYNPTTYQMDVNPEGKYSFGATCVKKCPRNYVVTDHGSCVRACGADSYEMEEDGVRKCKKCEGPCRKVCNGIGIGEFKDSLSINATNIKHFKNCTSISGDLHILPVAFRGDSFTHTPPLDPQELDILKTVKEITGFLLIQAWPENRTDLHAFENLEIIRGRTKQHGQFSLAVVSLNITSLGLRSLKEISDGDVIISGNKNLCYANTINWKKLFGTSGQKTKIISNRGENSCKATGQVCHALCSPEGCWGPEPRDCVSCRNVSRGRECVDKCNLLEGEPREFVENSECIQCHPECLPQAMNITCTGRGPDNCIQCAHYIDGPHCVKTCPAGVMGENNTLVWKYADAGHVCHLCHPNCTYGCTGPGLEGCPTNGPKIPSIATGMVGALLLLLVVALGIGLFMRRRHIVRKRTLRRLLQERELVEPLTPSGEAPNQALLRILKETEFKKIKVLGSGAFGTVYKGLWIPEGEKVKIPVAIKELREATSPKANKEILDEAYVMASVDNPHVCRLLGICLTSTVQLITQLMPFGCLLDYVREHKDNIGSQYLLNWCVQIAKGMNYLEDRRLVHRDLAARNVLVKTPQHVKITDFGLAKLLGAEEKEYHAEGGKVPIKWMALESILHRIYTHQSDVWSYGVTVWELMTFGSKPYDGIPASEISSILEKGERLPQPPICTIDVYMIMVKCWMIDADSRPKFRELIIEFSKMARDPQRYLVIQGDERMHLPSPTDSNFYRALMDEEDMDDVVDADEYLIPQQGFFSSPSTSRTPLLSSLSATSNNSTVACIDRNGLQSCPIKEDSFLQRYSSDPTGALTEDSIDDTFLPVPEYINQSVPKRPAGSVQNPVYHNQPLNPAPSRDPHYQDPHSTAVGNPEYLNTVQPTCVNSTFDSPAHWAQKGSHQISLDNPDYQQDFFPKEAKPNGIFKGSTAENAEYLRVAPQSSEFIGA
T8 sequence (P07948 whole entry): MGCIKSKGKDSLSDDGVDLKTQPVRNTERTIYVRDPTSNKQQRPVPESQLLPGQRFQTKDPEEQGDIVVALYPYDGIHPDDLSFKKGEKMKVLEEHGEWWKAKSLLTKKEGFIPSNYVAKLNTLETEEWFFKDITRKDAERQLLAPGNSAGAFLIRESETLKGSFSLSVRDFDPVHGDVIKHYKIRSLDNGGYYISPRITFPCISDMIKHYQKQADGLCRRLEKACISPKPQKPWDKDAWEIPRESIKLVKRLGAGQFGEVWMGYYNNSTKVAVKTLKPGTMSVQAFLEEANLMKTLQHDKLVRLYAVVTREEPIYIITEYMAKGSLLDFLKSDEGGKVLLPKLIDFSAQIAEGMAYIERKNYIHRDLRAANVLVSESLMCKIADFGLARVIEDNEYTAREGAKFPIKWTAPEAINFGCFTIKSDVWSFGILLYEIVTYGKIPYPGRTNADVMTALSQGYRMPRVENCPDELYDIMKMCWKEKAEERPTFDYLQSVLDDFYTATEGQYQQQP
T4 sequence (Q9NSY1 whole entry): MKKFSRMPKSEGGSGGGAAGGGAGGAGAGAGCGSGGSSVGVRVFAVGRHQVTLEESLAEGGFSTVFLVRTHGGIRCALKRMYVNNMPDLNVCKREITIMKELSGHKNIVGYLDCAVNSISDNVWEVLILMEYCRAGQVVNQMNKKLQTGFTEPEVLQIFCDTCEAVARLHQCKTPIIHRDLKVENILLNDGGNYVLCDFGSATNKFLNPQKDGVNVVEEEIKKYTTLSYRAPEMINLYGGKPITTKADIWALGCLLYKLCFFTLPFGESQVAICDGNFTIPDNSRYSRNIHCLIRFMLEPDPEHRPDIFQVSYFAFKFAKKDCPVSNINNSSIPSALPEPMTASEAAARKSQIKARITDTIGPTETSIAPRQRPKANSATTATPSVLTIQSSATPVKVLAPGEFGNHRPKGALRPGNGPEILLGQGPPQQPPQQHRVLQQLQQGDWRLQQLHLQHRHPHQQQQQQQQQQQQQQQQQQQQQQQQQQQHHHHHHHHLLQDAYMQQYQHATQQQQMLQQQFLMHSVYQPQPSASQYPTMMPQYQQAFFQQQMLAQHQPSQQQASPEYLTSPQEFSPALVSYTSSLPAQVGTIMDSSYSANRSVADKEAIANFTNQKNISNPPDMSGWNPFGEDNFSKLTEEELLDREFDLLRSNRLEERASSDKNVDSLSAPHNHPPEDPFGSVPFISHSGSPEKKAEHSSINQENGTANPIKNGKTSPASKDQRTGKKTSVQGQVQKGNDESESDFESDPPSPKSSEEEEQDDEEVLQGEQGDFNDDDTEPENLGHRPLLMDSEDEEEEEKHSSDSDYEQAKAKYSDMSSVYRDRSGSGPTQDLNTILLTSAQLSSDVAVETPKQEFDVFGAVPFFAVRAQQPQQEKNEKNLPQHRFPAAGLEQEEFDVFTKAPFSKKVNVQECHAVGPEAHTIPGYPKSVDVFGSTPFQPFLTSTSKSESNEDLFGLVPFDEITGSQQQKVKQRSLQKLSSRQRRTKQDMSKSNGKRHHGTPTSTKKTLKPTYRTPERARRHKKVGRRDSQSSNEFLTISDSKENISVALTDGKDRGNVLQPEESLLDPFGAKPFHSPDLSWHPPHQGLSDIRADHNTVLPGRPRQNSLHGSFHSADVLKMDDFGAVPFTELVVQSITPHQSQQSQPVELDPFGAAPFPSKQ
T1 sequence (Q2M2I8 whole entry): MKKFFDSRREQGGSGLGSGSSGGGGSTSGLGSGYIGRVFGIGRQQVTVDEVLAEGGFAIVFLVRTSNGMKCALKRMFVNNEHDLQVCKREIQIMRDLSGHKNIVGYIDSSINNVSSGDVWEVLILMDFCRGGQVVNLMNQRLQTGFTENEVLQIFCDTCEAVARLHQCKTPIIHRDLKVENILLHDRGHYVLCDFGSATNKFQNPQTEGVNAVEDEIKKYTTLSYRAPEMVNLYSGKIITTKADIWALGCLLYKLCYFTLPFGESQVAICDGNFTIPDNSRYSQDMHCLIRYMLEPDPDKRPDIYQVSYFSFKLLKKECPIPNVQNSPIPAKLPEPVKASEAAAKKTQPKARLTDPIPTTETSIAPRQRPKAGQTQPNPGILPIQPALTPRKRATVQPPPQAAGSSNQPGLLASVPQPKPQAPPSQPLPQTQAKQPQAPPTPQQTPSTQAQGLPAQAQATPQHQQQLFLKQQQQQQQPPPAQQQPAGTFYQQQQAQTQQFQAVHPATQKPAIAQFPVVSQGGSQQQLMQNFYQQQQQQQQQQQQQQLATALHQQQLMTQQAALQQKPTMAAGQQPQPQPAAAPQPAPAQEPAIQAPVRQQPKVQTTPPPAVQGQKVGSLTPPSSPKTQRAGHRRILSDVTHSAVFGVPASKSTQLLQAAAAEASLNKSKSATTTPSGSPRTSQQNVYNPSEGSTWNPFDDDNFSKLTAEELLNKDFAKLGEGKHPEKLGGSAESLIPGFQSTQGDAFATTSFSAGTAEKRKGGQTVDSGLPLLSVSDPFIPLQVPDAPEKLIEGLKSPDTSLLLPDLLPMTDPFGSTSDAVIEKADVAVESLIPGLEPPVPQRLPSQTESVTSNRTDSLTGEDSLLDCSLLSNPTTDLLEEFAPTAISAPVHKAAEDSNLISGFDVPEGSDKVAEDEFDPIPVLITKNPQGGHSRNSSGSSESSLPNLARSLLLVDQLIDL

Structure (SMILES)	inhibition at 10 µM [1, 10] [%]	inhibition at 10 µM [2, 11] [%]	inhibition at 10 µM [3, 12] [%]	inhibition at 10 µM [4, 13] [%]	inhibition at 10 µM [5, 14] [%]	inhibition at 10 µM [6, 15] [%]	inhibition at 10 µM [7] [%]	inhibition at 10 µM [8, 16] [%]	inhibition at 10 µM [9, 17] [%]	inhibition at 10 µM [3, 18] [%]	inhibition at 10 µM [5, 19] [%]	inhibition at 10 µM ([6]; 10 μM, n = 1, read-out: percent inhibition EGFR) [%]	inhibition of KDR (VEGFR2), in words ([7]; kinome profiling, 10 μM)	inhibition at 10 µM ([8]; 10 μM, n = 1, read-out: percent inhibition LYN) [%]	inhibition at 10 µM ([1]; 10 μM, n = 1, read-out: percent inhibition AAK1) [%]	inhibition at 10 µM ([2]; 10 μM, n = 1, read-out: percent inhibition AXL) [%]	inhibition at 10 µM ([4]; 10 μM, n = 1, read-out: percent inhibition BIKE) [%]	inhibition at 10 µM ([9]; 10 μM, n = 1, read-out: percent inhibition TTK) [%]
C[C@@H](Oc1cc(-c2cnc3ccccn23)sc1C(N)=O)c1ccccc1Cl [Compound 8]	97.5	89	0	99.4	0	0	0	0	69.8									
Cc1ccc(O)cc1N(C)c1ccnc(Nc2cccc(S(N)(=O)=O)c2)n1 [Compound 4]	0	0	79.6	0	0	95.8	83.7	99.8	91.8									
COc1cc(Nc2nccc(-c3sc(N)nc3-c3cccc(NC(=O)c4c(F)cccc4F)c3)n2)cc(OC)c1OC [Compound 7]	92.8	99	99.5	0	0	100	89.5	100	99.2									
CN1CCN(c2ccc(Nc3nccc(-c4cnn5ncccc45)n3)cc2C#N)CC1 [Compound 1]	99.9	100	96.7	99.1	99.5	0	100	0	99.9	> 90	> 99							
Fc1cccc(COc2ccc(Nc3ncnc4c3CN(CCN3CCOCC3)CC4)cc2Cl)c1 [Compound 6]	0	0	0	0	0	99.9	0	0	0			> 99						
Cc1ccc(O)cc1Nc1ccnc(Nc2cccc(C(N)=O)c2)n1 [Compound 3]	0	0	91.3	0	0	99	81.5	99.9	98.7									
Clc1ccc(Nc2ncc(-c3ccccc3)s2)cc1 [Compound 10]	0	0	0	0	0	0	0	100	0				relatively weak inhibition	> 99				
COc1ccc(Nc2nccc(-c3cnn4ncccc34)n2)cc1 [Compound 2]	99.7	77.8	91.1	96.5	99.9	0	92.9	0	100	> 90	> 99							
c1ccc(COc2cccc(-c3ccnc4[nH]ccc34)c2)cc1 [Compound 9]	95.1	93.8	0	94.9	0	0	0	0	0						≥ 90	≥ 90	≥ 90	
Nc1ncc2c(-c3ccncc3)c[nH]c2n1 [Compound 11]	79.4	0	0	0	0	0	0	0	99.5									≥ 99

Source: article PMC9927415, “Tyrosine Kinase Inhibitors Display Potent Activity against Cryptosporidium parvum” (Microbiology Spectrum, 2022)
